# Measured values published in patent publication EP0781282B1, “[1,2,4]TRIAZOLO[4,3-a]QUINOXALINONE DERIVATIVES, THEIR PREPARATION AND USE” (NOVO NORDISK A/S, priority 1994, dated 1996).
# How the values were obtained:
# AMPA receptors = test: 3H-AMPA binding (Test 1); details: displacement of 50% of specific 3H-AMPA binding (5 nM); rat cerebral cortical membrane homogenate, 0°C, 30 min
# Method: The displacement activity of the compounds may be shown by determining the IC50 value which represents the concentration (µM) which causes a displacement of 50% of the specific binding of ^3H-AMPA.
# ^3H-AMPA binding (Test 1)
# 500 µl of thawed rat cerebral cortical membrane homogenate in Tris-HCI (30 mM), CaCl2 (2.5 mM) and KSCN (100 mM) pH 7.1 were incubated at 0°C for 30 min. with 25 µl ^3H-AMPA (5 nM final concentration) and the test compound and buffer. Nonspecific binding was determined by incubation with L-glutamic acid (600 µM final concentration). The binding reaction was terminated by adding 5 ml of ice-cold buffer followed by filtration through Whatman GF/C glass fibre filters and 2x5 ml wash with ice-cold buffer. Bound radioactivity was measured by scintillation counting. IC50 was determined by Hill analysis of at least four concentrations of test compound.
# [1] = test system: quisqualic acid stimulated spreading depression in chicken retina; test: Spreading depression in chicken retina (Test 2); details: 50% maximal inhibition of spreading depression; quisqualate 1 µg/ml, chick retina, 26°C
# Method: The antagonism is measured by determining the IC50 value which represents the concentration which produces a 50% maximal inhibition of quisqualic acid stimulated spreading depression in chicken retina.
# Spreading depression (Test 2)
# Chicks (3-10 days old) were decapitated, the eyes enucleated and sectioned along the equatorial plane. After removal of the anterior chamber and the vitreous body, the posterior chamber of each eye was placed in a small petri dish containing a physiological saline solution (P.S.S.) of the following composition (mM) NaCI (100), KCI (6.0), CaCl2 (1.0), MgSO4 (1.0), NaHCO3 (30), NaH2PO4 (1.0), glucose (20).
# The solution was saturated with 100% O2 and maintained at a temperature of 26°C.
# The eyes were initially incubated in normal P.S.S. for 15-30 min. and then transferred to P.S.S. containing quisqualate (1 µg/ml). […] The time taken for an S.D. to start in each eye was measured.
# After a further 15 min. of incubation in normal P.S.S. the eyes were transferred to normal P.S.S. containing the test compound and incubated for 15 min. […] The time taken for an S.D. to start in each eye was measured again. The eyes were then placed back in normal P.S.S. and after 15 min. the time taken for S.D. to start was measured again, in order to assess the degree of recovery from any drug effects. […]
smiles,measurement,setting,value
"CCOP(=O)(O)Cc1nnc2c(=O)[nH]c3cc(C(F)(F)F)c(-n4ccnc4)cc3n12 [Example 1, 1-(Ethoxy-hydroxy-phosphorylmethyl)-8-(1H-imidazol-1-yl)-7-trifluoromethyl[1,2,4]triazolo[4,3-a]quinoxalin-4(5H)-one]",IC50,AMPA receptors,240 nM
same,IC50,[1],1310 nM
